# Source: the NIST ThermoML archive (doi:10.1021/je100148h)
# Values joined by “and” are separate entries in the source; they are usually repeats but may differ in a detail not shown here. Equal values may be shown once. ± gives the expanded uncertainty stated by the source.
# Details: Burnett expansion method
smiles,measurement,setting,value
[Ar] [argon],mass density,"318.75 K, 217.45 kPa, Gas",3.2819 ± 0.0091 kg/m3 and 3.2809 ± 0.0091 kg/m3
same,mass density,"318.75 K, 299.59 kPa, Gas",4.5227 ± 0.0091 kg/m3 and 4.5217 ± 0.0091 kg/m3
same,mass density,"318.75 K, 412.69 kPa, Gas",6.2318 ± 0.0091 kg/m3 and 6.2327 ± 0.0091 kg/m3
same,mass density,"318.75 K, 568.39 kPa, Gas",8.5885 ± 0.0091 kg/m3 and 8.5891 ± 0.0091 kg/m3
same,mass density,"318.75 K, 782.65 kPa, Gas",11.8364 ± 0.0091 kg/m3 and 11.8363 ± 0.0091 kg/m3
same,mass density,"318.75 K, 1077.3 kPa, Gas",16.3128 ± 0.0091 kg/m3 and 16.3112 ± 0.0091 kg/m3
same,mass density,"318.75 K, 2800.7 kPa, Gas",42.6996 ± 0.0093 kg/m3 and 42.685 ± 0.0093 kg/m3
same,mass density,"318.75 K, 3845.5 kPa, Gas",58.8449 ± 0.0093 kg/m3 and 58.8199 ± 0.0093 kg/m3
same,mass density,"318.75 K, 5275.1 kPa, Gas",81.0918 ± 0.0094 kg/m3 and 81.0507 ± 0.0094 kg/m3
same,mass density,"318.75 K, 7231.5 kPa, Gas",111.747 ± 0.0094 kg/m3 and 111.681 ± 0.0094 kg/m3
same,mass density,"318.76 K, 157.82 kPa, Gas",2.3805 ± 0.0091 kg/m3 and 2.3815 ± 0.0091 kg/m3
same,mass density,"318.76 K, 1482.3 kPa, Gas",22.4815 ± 0.0092 kg/m3 and 22.4774 ± 0.0092 kg/m3
same,mass density,"318.76 K, 2038.2 kPa, Gas",30.9829 ± 0.0092 kg/m3 and 30.9748 ± 0.0092 kg/m3
O=C=O [carbon dioxide],mass density,"343.13 K, 214.49 kPa, Fluid (supercritical or subcritical phases)",3.3311 ± 0.0094 kg/m3 and 3.3345 ± 0.0094 kg/m3
same,mass density,"343.13 K, 295.01 kPa, Fluid (supercritical or subcritical phases)",4.5929 ± 0.0094 kg/m3 and 4.5951 ± 0.0094 kg/m3
same,mass density,"343.13 K, 405.34 kPa, Fluid (supercritical or subcritical phases)",6.3329 ± 0.0095 kg/m3 and 6.3325 ± 0.0095 kg/m3
same,mass density,"343.13 K, 556.21 kPa, Fluid (supercritical or subcritical phases)",8.7319 ± 0.0097 kg/m3 and 8.7265 ± 0.0098 kg/m3
same,mass density,"343.13 K, 761.77 kPa, Fluid (supercritical or subcritical phases)",12.0399 ± 0.0096 kg/m3 and 12.0258 ± 0.0096 kg/m3
same,mass density,"343.13 K, 1040.8 kPa, Fluid (supercritical or subcritical phases)",16.6004 ± 0.0099 kg/m3 and 16.5719 ± 0.0099 kg/m3
same,mass density,"343.13 K, 1417 kPa, Fluid (supercritical or subcritical phases)",22.8886 ± 0.01 kg/m3 and 22.8367 ± 0.01 kg/m3
same,mass density,"343.13 K, 1919.8 kPa, Fluid (supercritical or subcritical phases)",31.5581 ± 0.01 kg/m3 and 31.4693 ± 0.01 kg/m3
same,mass density,"343.13 K, 2584.2 kPa, Fluid (supercritical or subcritical phases)",43.5107 ± 0.011 kg/m3 and 43.3646 ± 0.011 kg/m3
same,mass density,"343.13 K, 3447.3 kPa, Fluid (supercritical or subcritical phases)",59.9881 ± 0.012 kg/m3 and 59.7539 ± 0.012 kg/m3
same,mass density,"343.13 K, 4543 kPa, Fluid (supercritical or subcritical phases)",82.704 ± 0.014 kg/m3 and 82.3364 ± 0.014 kg/m3
same,mass density,"343.13 K, 5888.2 kPa, Fluid (supercritical or subcritical phases)",114.017 ± 0.03 kg/m3 and 113.448 ± 0.033 kg/m3
same,mass density,"343.13 K, 7469.2 kPa, Fluid (supercritical or subcritical phases)",157.178 ± 0.017 kg/m3 and 156.31 ± 0.016 kg/m3
